Results from US6469174B1, “Substituted pyrrolobenzimidazoles for treating inflammatory diseases” (Ortho-McNeil Pharmaceutical, Inc., priority 1998, dated 2002).
Like-named read-outs stand apart in the source and are kept apart here. Each block holds one compound with its values, some of them ahead of it.

Key:
p38 = p38 (Homo sapiens, UniProt Q16539); experiment: In vitro enzyme assay: inhibition of p38 activity; assay type: biochemical
Procedure: Compounds of the invention were measured for their ability to inhibit the activity of p38 by the following in vitro assay.
A solution (38 μL) of purified recombinant p38 (where the amount of enzyme was determined empirically considering the linear range of the assay and the acceptable signal to noise ratio; 6×His-p38 expressed in E. coli), myelin basic protein substrate (also determined empirically), and a buffer of pH 7.5 (Hepes:25 mM, MgCl2:10 mM, MnCl2:10 mM) were added to 92 wells of a 96-well round bottom polypropylene plate. The remaining wells were used for control (“CTRL”) and background (“BKG”).
The CTRL was prepared with the enzyme, substrate buffer and 2% DMSO, and the BKG was prepared with substrate buffer and 2% DMSO. […]
The contents of each well were transferred to the wells of a 96-well filterplate (Millipore, MultiScreen-DP) and the filterplate was placed on a vacuum manifold, fitted with a waste collection tray. […] MicroScint-20 scintillant was added, the plates were sealed using Topseal-S sheets and counted in a Packard TopCount scintillation counter using a ^33P liquid program with color quench correction, where the output is in color quench-corrected cpm.
The % inhibition of the test compounds was calculated by the following formula: % inhibition=[1−(sample −BKG)/(CTRL−BKG)]×100.

TNF-α [1] = experiment: In vitro whole cell assay: LPS-stimulated TNF-α production in PBMC (ELISA); assay type: cell-based; settings: LPS-stimulated human PBMC
Procedure: In addition to the enzyme assay, many of the compounds of the invention were tested in an in vitro whole cell assay using peripheral blood mononuclear cells (“PBMC”) which were obtained from human blood as follows. Freshly obtained venous blood was anticoagulated with heparin, diluted with an equal volume of phosphate buffered saline (“PBS”) and placed in a sterile tube or other container. Aliquots (30 mL) of this mixture were transferred to centrifuge tubes which were underlaid with Ficoll-Hypaque (15 mL). The prepared tubes were centrifuged at 400×g without braking for 30 minutes at room temperature. Approximately ½ to ⅔ of the platelet layer above the mononuclear cell band was removed with a pipet. The majority of the mononuclear cell layer was carefully removed using a pipet and these PBMC's were diluted with PBS and spun at 600×g for 15 minutes. The resulting PBMC's were washed with another portion of PBS and spun at 400×g for 10 minutes at room temperature. The recovered pellets were diluted in low endotoxin RPMI/1% FCS culture medium and gave a cell concentration of 0.5-2.0×10^6 PBMC/ mL. A small volume of the suspension was removed for counting on a hemocytometer and the remaining preparation was centrifuged at 200×g for 15 minutes at room temperature. The recovered pelleted PBMC's were resuspended in RPMI/1% FCS to a concentration of 1.67×10^6/mL.
To run the assay, the PBMC suspension (180 μL) was transferred to duplicate wells of a 96-well flat-bottom microtiter plate and incubated for 1 hour at 37° C. A solution of test compound (10 μL: prepared at 20×the desired final concentration) was added to each well and the plate was incubated for 1 hour at 37° C. A solution (10 μL) of LPS in RPMI/1% FCS (200 ng/mL) was added and the wells were incubated overnight at 37° C. The supernatant (100 μL) was removed from each well and diluted with RPMI/1% FCS (400 μL). The samples were analyzed for TNF-α using a commercial ELISA kit (Genzyme).
Certain compounds of the invention are listed in Tables A and B. The compounds were tested for their ability to inhibit TNF-α in vitro. The data are listed as an IC50 or as the % inhibition at a given concentration.

TNF-α [2] = experiment: In vivo LPS-induced TNF-α production, oral dosing; settings: mouse, LPS 1 mg/kg i.p.
Procedure: Mice (BALB/cJ females, Jackson Laboratories) or rats (Lewis males, Charles River) were fasted for 30 minutes prior to oral dosing with 5-10 mL/kg of test compound at 5-50 mg/kg. Thirty minutes after dosing, the animals were injected intraperitoneally with LPS at 1 mg/kg and returned to their cages for 1 hour. Animals were anesthetized by CO2, exsanguinated by cardiac puncture and whole blood collected (0.1-0.7 mL). The blood was allowed to clot and serum was transferred to a centrifuge tube. This sample was centrifuged, serum was collected, aliquoted and frozen at −80° C. Samples were tested by commercial ELISA's for TNF-α (Endogen for mouse TNF-α and Biosource for rat TNF-α).

[3] = Table B, read-out: IC50 (TNF-α in vitro)

p38, sequence (Q16539 whole entry): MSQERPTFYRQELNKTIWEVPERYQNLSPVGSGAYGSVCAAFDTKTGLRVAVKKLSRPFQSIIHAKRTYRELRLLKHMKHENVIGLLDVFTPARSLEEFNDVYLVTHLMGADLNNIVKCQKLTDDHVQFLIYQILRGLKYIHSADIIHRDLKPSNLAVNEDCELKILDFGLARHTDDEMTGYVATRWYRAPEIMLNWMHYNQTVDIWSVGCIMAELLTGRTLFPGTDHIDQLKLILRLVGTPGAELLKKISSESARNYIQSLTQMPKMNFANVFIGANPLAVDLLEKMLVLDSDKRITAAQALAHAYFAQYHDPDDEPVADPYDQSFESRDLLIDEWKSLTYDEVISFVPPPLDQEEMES

Compound: Fc1ccc(-c2[nH]c3ccc4[nH]c(Cc5ccccc5)nc4c3c2-c2ccncc2)cc1 [Compound 1, 1,6-Dihydro-7-(4-fluorophenyl)-8-(4-pyridyl)-2-phenylmethyl-pyrrolo [3,2-e] benzimidazole]
- inhibition at 20 µM (p38): 44%
- IC50 (TNF-α [1]; Table A, read-out: TNF-α IC50): 7 nM
- inhibition of TNF-α (TNF-α [2]; 10 mg/kg): 74%
- inhibition of TNF-α (TNF-α [2]; 25 mg/kg): 91%

Compound: Fc1ccc(-c2[nH]c3ccc4nc(-c5ccccc5)[nH]c4c3c2-c2ccncc2)cc1 [Compound 2, 1,6-dihydro-7-(4-fluorophenyl)-8-(4-pyridyl)-2-phenyl-pyrrolo[3,2-e]benzimidazole]
- IC50 (TNF-α [1]; Table A, read-out: TNF-α IC50): 20 nM

Compound: CCCCc1nc2ccc3[nH]c(-c4ccc(F)cc4)c(-c4ccncc4)c3c2[nH]1 [Compound 4, 1,6-dihydro-7-(4-fluorophenyl)-8-(4-pyridyl)-2-butyl-pyrrolo[3,2-e]benzimidazole]
- IC50 (TNF-α [1]; Table A, read-out: TNF-α IC50): 45 nM

Compound: Fc1ccc(-c2[nH]c3ccc4nc(CCc5ccccc5)[nH]c4c3c2-c2ccncc2)cc1 [Compound 7, 1,6-dihydro-7-(4-fluorophenyl)-8-(4-pyridyl)-2-(2-phenylethyl)-pyrrolo[3,2-e]benzimidazole]
- IC50 (TNF-α [1]; Table A, read-out: TNF-α IC50): 50 nM

Compound: Fc1ccc(-c2c(-c3ccncc3)[nH]c3ccc4c(ncn4CCCc4ccccc4)c23)cc1 [Compound 11, 3,6-dihydro-8-(4-fluorophenyl)-3-(3-phenylpropyl)-7-(4-pyridyl)-pyrrolo[3,2-e]benzimidazole]
- inhibition at 0.4 µM (TNF-α [1]; @ 400 nM, Table B, read-out: % inhibition of TNF-α at a given concentration): 0%

Now from value to compound:

- IC50 (TNF-α [1]; [3]): 15 nM
Compound: Fc1ccc(-c2c(-c3ccncc3)[nH]c3ccc4nc[nH]c4c23)cc1 [Compound 9, 1,6-dihydro-7-(4-pyridyl)-8-(4-fluorophenyl)-pyrrolo[3,2-e]benzimidazole]

- IC50 (TNF-α [1]; [3]): > 400 nM
Compound: Fc1ccc(-c2c(-c3ccncc3)[nH]c3ccc4nc(Cc5ccccc5)[nH]c4c23)cc1 [Compound 10, 1,6-dihydro-7-(4-pyridyl)-8-(4-fluorophenyl)-2-phenylmethyl-pyrrolo[3,2-e]benzimidazole]
